This note sets out measurements from PubChem BioAssay AID248 (DTP/NCI, 2004).

Each structure is given as a SMILES string. Values joined by “and” are separate entries in the source; they are usually repeats but may differ in a detail not shown here. Identical values can stand only once. Toxic doses and inconclusive results are not listed.

This assay deals with L1210 leukemia ip in BDF1 mice, survival T/C. Briefly: NCI In Vivo Anticancer Drug Screen. Data for tumor model L1210 Leukemia (intraperitoneal) in B6D2F1 (BDF1) mice. Conditions: endpoint: mean survival time, higher = longer survival. The gist of the method:
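Ratio derived from survival: compound-dosed mice over vehicle-dosed mice, all bearing a transplantable tumor.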

[1] abbreviates: dose: 100.0 mg/kg/injection, schedule: Q04DX002 (ip), vehicle: saline with Tween-80.
Setting [2] is: dose: 200.0 mg/kg/injection, schedule: Q04DX002 (ip), vehicle: saline with Tween-80.
The mark [3] stands for this setting: dose: 400.0 mg/kg/injection, schedule: Q04DX002 (ip), vehicle: saline with Tween-80.
[4] abbreviates: dose: 100.0 mg/kg/injection, schedule: Q01DX001 (ip), vehicle: carboxymethylcellulose (CMC).
[5] abbreviates: dose: 200.0 mg/kg/injection, schedule: Q01DX001 (ip), vehicle: carboxymethylcellulose (CMC).
[6] abbreviates: dose: 100.0 mg/kg/injection, schedule: Q01DX009 (ip), vehicle: saline with Tween-80.
[7] abbreviates: dose: 200.0 mg/kg/injection, schedule: Q01DX009 (ip), vehicle: saline with Tween-80.
Where [8] appears, read: dose: 400.0 mg/kg/injection, schedule: Q01DX009 (ip), vehicle: saline with Tween-80.
[9] abbreviates: dose: 50.0 mg/kg/injection, schedule: Q01DX009 (ip), vehicle: Klucel (hydroxypropylcellulose) (HPC).
The mark [10] stands for this setting: dose: 100.0 mg/kg/injection, schedule: Q01DX009 (ip), vehicle: Klucel (hydroxypropylcellulose) (HPC).
Where [11] appears, read: dose: 100.0 mg/kg/injection, schedule: Q04DX003 (ip), vehicle: other.
[12] abbreviates: dose: 200.0 mg/kg/injection, schedule: Q04DX003 (ip), vehicle: other.
Where [13] appears, read: dose: 400.0 mg/kg/injection, schedule: Q04DX003 (ip), vehicle: other.
[14] abbreviates: dose: 100.0 mg/kg/injection, schedule: Q04DX003 (ip), vehicle: saline.
Setting [15] is: dose: 200.0 mg/kg/injection, schedule: Q04DX003 (ip), vehicle: saline.
Where [16] appears, read: dose: 100.0 mg/kg/injection, schedule: Q01DX001 (ip), vehicle: Klucel (hydroxypropylcellulose) (HPC).
[17] abbreviates: dose: 100.0 mg/kg/injection, schedule: Q04DX003 (ip), vehicle: Klucel (hydroxypropylcellulose) (HPC).
The mark [18] stands for this setting: dose: 200.0 mg/kg/injection, schedule: Q01DX001 (ip), vehicle: Klucel (hydroxypropylcellulose) (HPC).
Setting [19] is: dose: 200.0 mg/kg/injection, schedule: Q04DX003 (ip), vehicle: Klucel (hydroxypropylcellulose) (HPC).
[20] abbreviates: dose: 100.0 mg/kg/injection, schedule: Q04DX003 (ip), vehicle: saline with Tween-80.
The mark [21] stands for this setting: dose: 200.0 mg/kg/injection, schedule: Q04DX003 (ip), vehicle: saline with Tween-80.
Where [22] appears, read: dose: 400.0 mg/kg/injection, schedule: Q04DX003 (ip), vehicle: saline with Tween-80.

For `CC(C)(C)NC#SNC(C)(C)C`, the T/C runs as follows: under setting [1], 100 % of control; under setting [2], 92 % of control; under setting [3], 92 % of control.
Regarding `Cc1cc(/C=C/C2=[N+](C)c3ccc(F)cc3C2(C)C)c(O)c2ncccc12`, the T/C reads like this: under setting [4], 98 % of control; under setting [5], 90 % of control; (dose: 400.0 mg/kg/injection, schedule: Q01DX001 (ip), vehicle: carboxymethylcellulose (CMC)) 93 % of control.
Regarding `Cc1[nH]c2ccc(N(C)C)cc2c(=O)c1Cc1c(C)[nH]c2ccc(N(C)C)cc2c1=O`, the T/C is 94 % of control under setting [6], 95 % of control under setting [7] and 92 % of control under setting [8].
`Nc1nc(SCc2ccncc2)c2[nH]cnc2n1`: the T/C (dose: 178.0 mg/kg/injection, schedule: Q01DX001 (ip), vehicle: saline) is 118 % of control.
As for `COc1cc(C=Nc2ccc(-c3csc(-c4ccccc4)n3)c(Cl)c2)ccc1N(CCCl)CCCl`, the T/C is 122 % of control (dose: 13.3 mg/kg/injection, schedule: Q01DX001 (ip), vehicle: carboxymethylcellulose (CMC)); 158 % of control (dose: 20.0 mg/kg/injection, schedule: Q01DX009 (ip), vehicle: carboxymethylcellulose (CMC)); 166 % of control under setting [4]; 95 % of control under setting [5].
`COC(=O)C12CCc3cc(OC)ccc3C1=CC(=O)C2` (stereo not given): the T/C (dose: 100.0 mg/kg/injection, schedule: Q04DX003 (ip), vehicle: saline sonified) is 101 % of control; the T/C (dose: 200.0 mg/kg/injection, schedule: Q04DX003 (ip), vehicle: saline sonified) is 95 % of control; the T/C (dose: 400.0 mg/kg/injection, schedule: Q04DX003 (ip), vehicle: saline sonified) was 94 % of control.
With `O=c1c(Cl)c(C(Cl)(Cl)Cl)[nH]c2ccccc12`, the T/C is 104 % of control (dose: 25.0 mg/kg/injection, schedule: Q01DX001 (ip), vehicle: saline with Tween-80) and 106 % of control (dose: 50.0 mg/kg/injection, schedule: Q01DX001 (ip), vehicle: saline with Tween-80).
For `COC1OC2COc3ccccc3OC2C(NC#N)C1OC` (stereo not given), the T/C is, setting by setting: (dose: 25.0 mg/kg/injection, schedule: Q01DX009 (ip), vehicle: Klucel (hydroxypropylcellulose) (HPC)) 102 % of control; under setting [9], 96 % of control; under setting [10], 93 % of control and 87 % of control.
On to `O=c1[nH]ccc2n[nH]nc12`, for which the T/C was 104 % of control (dose: 100.0 mg/kg/injection, schedule: Q01DX001 (ip), vehicle: other); 96 % of control under setting [11]; 101 % of control (dose: 200.0 mg/kg/injection, schedule: Q01DX001 (ip), vehicle: other); 105 % of control under setting [12]; 104 % of control (dose: 400.0 mg/kg/injection, schedule: Q01DX001 (ip), vehicle: other); 102 % of control under setting [13].
`C[CH2][Pb]([CH2]C)([CH2]C)[N](C#N)C(=N)N`: the T/C (dose: 25.0 mg/kg/injection, schedule: Q04DX002 (ip), vehicle: Klucel (hydroxypropylcellulose) (HPC)) is 97 % of control and the T/C (dose: 50.0 mg/kg/injection, schedule: Q04DX002 (ip), vehicle: Klucel (hydroxypropylcellulose) (HPC)) is 101 % of control.
For the compound `CSc1nn2c(SC)nnc2s1`, the T/C (dose: 50.0 mg/kg/injection, schedule: Q01DX001 (ip), vehicle: carboxymethylcellulose (CMC)) was 104 % of control; the T/C under setting [4] is 101 % of control; the T/C under setting [5] is 120 % of control.
On to `COc1ccccc1-n1c(O)c(N=Nc2ccc(Cl)cc2)c(=O)n(-c2ccc(I)cc2)c1=S`, for which the T/C reads like this: (dose: 37.5 mg/kg/injection, schedule: Q01DX001 (ip), vehicle: Klucel (hydroxypropylcellulose) (HPC)) 94 % of control; (dose: 75.0 mg/kg/injection, schedule: Q01DX001 (ip), vehicle: Klucel (hydroxypropylcellulose) (HPC)) 94 % of control; (dose: 150.0 mg/kg/injection, schedule: Q01DX001 (ip), vehicle: Klucel (hydroxypropylcellulose) (HPC)) 90 % of control.
Take `O=C1NC2/C=C/CCCCC12` (stereo not given): the T/C under setting [11] was 95 % of control, the T/C under setting [12] is 101 % of control and the T/C under setting [13] was 92 % of control.
With `[Cl][Pt+2][Cl].[NH-]C1CCCCC1.[NH-]C1CCCCC1`, the T/C (dose: 25.0 mg/kg/injection, schedule: Q04DX003 (ip), vehicle: saline) is 100 % of control; the T/C (dose: 40.0 mg/kg/injection, schedule: Q04DX003 (ip), vehicle: Klucel (hydroxypropylcellulose) (HPC)) is 103 % of control; the T/C (dose: 50.0 mg/kg/injection, schedule: Q04DX003 (ip), vehicle: saline) was 110 % of control; the T/C (dose: 80.0 mg/kg/injection, schedule: Q04DX003 (ip), vehicle: Klucel (hydroxypropylcellulose) (HPC)) was 103 % of control; the T/C under setting [1] was 94 % of control; the T/C under setting [14] is 103 % of control. The T/C is 101 % of control (dose: 160.0 mg/kg/injection, schedule: Q04DX003 (ip), vehicle: Klucel (hydroxypropylcellulose) (HPC)); 117 % of control under setting [2]; 108 % of control under setting [15]; 106 % of control (dose: 320.0 mg/kg/injection, schedule: Q04DX003 (ip), vehicle: Klucel (hydroxypropylcellulose) (HPC)); 102 % of control under setting [3]; 108 % of control (dose: 400.0 mg/kg/injection, schedule: Q04DX003 (ip), vehicle: saline). Besides, the T/C (dose: 640.0 mg/kg/injection, schedule: Q04DX003 (ip), vehicle: Klucel (hydroxypropylcellulose) (HPC)) is 102 % of control.
With `O=P1(N(CCCl)CCCl)N(Cc2ccccc2)c2ccccc2N1Cc1ccccc1`, the T/C under setting [16] is 102 % of control; the T/C under setting [17] is 102 % of control; the T/C under setting [18] is 94 % of control; the T/C under setting [19] was 98 % of control; the T/C (dose: 400.0 mg/kg/injection, schedule: Q01DX001 (ip), vehicle: Klucel (hydroxypropylcellulose) (HPC)) is 100 % of control; the T/C (dose: 400.0 mg/kg/injection, schedule: Q04DX003 (ip), vehicle: Klucel (hydroxypropylcellulose) (HPC)) was 101 % of control.
Consider `Cc1c(N)nc(=S)[nH]c1C(=O)O`, for which the T/C is 95 % of control (dose: 50.0 mg/kg/injection, schedule: Q01DX001 (ip), vehicle: Klucel (hydroxypropylcellulose) (HPC)); 91 % of control (dose: 50.0 mg/kg/injection, schedule: Q04DX003 (ip), vehicle: Klucel (hydroxypropylcellulose) (HPC)); 97 % of control under setting [16]; 105 % of control under setting [17]; 106 % of control under setting [18]; 94 % of control under setting [19].
With `O=C(O)CCCl`, the T/C was 90 % of control (dose: 50.0 mg/kg/injection, schedule: Q01DX001 (ip), vehicle: saline); 98 % of control under setting [9]; 92 % of control under setting [10]; 104 % of control under setting [14]; 89 % of control (dose: 200.0 mg/kg/injection, schedule: Q01DX001 (ip), vehicle: saline); 92 % of control (dose: 200.0 mg/kg/injection, schedule: Q01DX009 (ip), vehicle: Klucel (hydroxypropylcellulose) (HPC)). For the same compound, the T/C under setting [15] was 98 % of control.
For `Cc1ccc(NC(=O)Nc2cccc(Cl)c2C)cc1NC(=O)Nc1cccc(Cl)c1C`, the T/C under setting [6] is 87 % of control; the T/C under setting [20] is 90 % of control; the T/C under setting [7] was 87 % of control; the T/C under setting [21] is 91 % of control; the T/C under setting [8] was 86 % of control; the T/C under setting [22] was 91 % of control.
For the compound `CC1(C)CC2(OC2c2cccc(Cl)c2)C(=O)c2ccccc21` (stereo not given), the T/C by setting is: under setting [20], 89 % of control; under setting [21], 94 % of control; under setting [22], 89 % of control.
